As usually defined, the EC50 is the concentration at which the effect is half-maximal.

“And” between values parts separate entries of the source, which are not always exact repeats. Identical values can stand only once. “Also recorded” adds a separate entry of the source. Like-named read-outs stand apart in the source and are kept apart here.

Test [1] concerns the target T1, α7 nAChR (Homo sapiens, UniProt P36544).
T1 construct: expressed in transfected cells; host or cells: Xenopus laevis oocytes, injected with in vitro transcribed RNA
Conditions: cited from earlier work; for Agonist character at α7: earlier reports / Papke et al. (2022).

The target of test [2] is T2, α9 nAChR (Homo sapiens, UniProt Q9UGM1).
T2 construct: expressed in transfected cells; host or cells: Xenopus laevis oocytes, injected with in vitro transcribed RNA
T2 sequence (Q9UGM1 26-479 limits assumed): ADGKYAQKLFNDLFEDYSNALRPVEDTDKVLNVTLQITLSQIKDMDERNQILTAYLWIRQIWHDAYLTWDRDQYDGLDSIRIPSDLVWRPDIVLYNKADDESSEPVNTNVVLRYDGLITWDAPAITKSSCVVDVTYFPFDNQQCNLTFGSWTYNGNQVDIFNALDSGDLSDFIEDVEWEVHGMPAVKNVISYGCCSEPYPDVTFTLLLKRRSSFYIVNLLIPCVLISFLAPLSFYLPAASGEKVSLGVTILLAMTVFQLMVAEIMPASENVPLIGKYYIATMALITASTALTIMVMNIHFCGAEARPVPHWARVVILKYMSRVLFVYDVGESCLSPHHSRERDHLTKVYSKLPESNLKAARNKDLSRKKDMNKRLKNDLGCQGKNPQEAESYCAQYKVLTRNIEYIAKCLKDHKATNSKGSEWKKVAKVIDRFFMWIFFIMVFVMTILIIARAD
Description: Two-electrode voltage-clamp, agonist concentration-response, α9 nAChR in Xenopus oocytes. Format: cell-based. Particulars: for EC50 / α9 Imax: peak currents, ± standard error of fit; for α9 Imax: relative to ACh (Imax = 1). The text has this:
(§1) Electrophysiology: Xenopus oocytes were microinjected with RNAs to produce functional nAChR which were characterized by two-electrode voltage-clamp measurements. FIGS. 5A-7D present concentration-response curves for the new compounds evaluated with α7, α9, and α9α10 receptors. Table 1 presents the values for Imax and EC50 with these receptors and Table 2 summarizes inhibition data for the compounds with heteromeric nAChR.
(§2) Molecular Biology: Plasmid DNAs encoding the human α7 and heteromeric nAChR were obtained from Jon Lindstrom (University of Pennsylvania, Philadelphia, PA). Mouse muscle subunit clones were obtained from Jim Boulter (Salk Institute, La Jolla CA) and Paul Gardner (Dartmouth, Hanover NH). The human resistance-to-cholinesterase 3 ([…]) clone was obtained from Millet Treinin (Hebrew University, Jerusalem, Israel) and RNA co-injected with α7 to improve the level and speed of receptor expression without affecting their pharmacological properties. Plasmid DNA encoding the human α10 nAChR was obtained from J. Michael McIntosh. Plasmid DNA encoding the human α9 nAChR and the human receptor-associated protein of the synapse (RAPSYN) with codon optimization for expression in Xenopus laevis were obtained from Katrin Richter. RAPSYN RNA was co-injected with the α9 and α10 to improve expression (Richter et al., (2022) Front. Cell Neurosci. 16: 779081). After linearization and purification of the plasmid DNAs, RNAs were prepared using the mMessage mMachine in vitro RNA transcription kit (Ambion, Austin, TX). Frogs were maintained in the Animal Care Service facility of the University of Florida, and all procedures were approved by the University of Florida Institutional Animal Care and Use Committee (approval number 202002669). In brief, the animals were first anesthetized for 15-20 min in 1.5 l frog tank water containing 1 g of MS-222 buffered with sodium bicarbonate. Oocytes were obtained surgically from mature female Xenopus laevis (Nasco, Ft. Atkinson WI, USA) and treated with 1.4 mg/ml type 1 collagenase (Worthington Biochemicals, Freehold NJ, USA) for 2-4 h at rt in Ca2+-free Barth's solution (88 mM NaCl, 1 mM KCl, 2.38 mM NaHCO3, 0.82 mM MgSO4, 15 mM HEPES, and 12 mg/l tetracycline, pH 7.6) to remove the ovarian tissue and the follicular layers. Stage V oocytes were injected with 4-6 ng CHRNA7 RNA and 2-3 ng RIC3 RNA (2:1 ratio) in 50 nl water, or with 12 ng CHRNA9 RNA and 3 ng RAPSN RNA, or along with 12 ng CHRNA10 RNA in 50 nl water. Oocytes were maintained in Barth's solution containing 0.32 mM Ca(NO3)2 and 0.41 mM CaCl2, and recordings were conducted 2-20 days after injection.
(§3) Electrophysiology: Two-electrode voltage-clamp experiments were conducted using OpusXpress 6000A (Molecular Devices, Union City CA, USA). Both the voltage and current electrodes were filled with 3 M KCl. Oocytes were voltage-clamped at −60 mV at rt. The oocytes were perfused with Ringer's solution (115 mM NaCl, 2.5 mM KCl, 1.8 mM CaCl2, 10 mM HEPES, 1 μM atropine, pH 7.2) at 2 ml/min. […] Drug applications were 12 s in duration followed by 181 s washout periods.
(§4) The responses were calculated as both peak-current amplitudes and net charge. Data were collected at 50 Hz, filtered at 20 Hz, and analyzed by Clampfit (Molecular Devices) and Excel (Microsoft, Redmond, WA, United States). Data are expressed as means±SEM from at least five oocytes for each experiment and plotted with Kaleidagraph 4.5.2 (Abelbeck Software, Reading, PA, United States). Each episode of data acquisition was a total of 210 s and included an initial 30 s period used to define the baseline for the drug-evoked responses. After 30 s, drugs were applied, and the following 120 s were defined as the drug response period for analysis. […] The values for the curve fits were generated using the Levenberg-Marquardt algorithm to obtain the best Chi-Square fit to the Hill equation using the Kaleidagraph 4.5.2 plotting program. […]
Background: In two-electrode clamp one electrode senses voltage and the other passes current.

Test [3] concerns the target T3, α9α10 nAChR (Homo sapiens, UniProt Q9GZZ6+Q9UGM1).
T3 construct: expressed in transfected cells; host or cells: Xenopus laevis oocytes, injected with in vitro transcribed RNA
Particulars: relative to ACh (Imax = 1); data taken from Papke et al. (2022); cited from earlier work.

Test [4] has as its target T1, α7 nAChR. Description: Two-electrode voltage-clamp, agonist concentration-response, α7 nAChR in Xenopus oocytes. Format: cell-based. Conditions: for EC50 / α7 Imax: net charge, ± standard error of fit; for α7 Imax: relative to ACh (Imax = 1).
From the text: as §1
(§5) Molecular Biology: Plasmid DNAs encoding the human α7 and heteromeric nAChR were obtained from Jon Lindstrom (University of Pennsylvania, Philadelphia, PA). Mouse muscle subunit clones were obtained from Jim Boulter (Salk Institute, La Jolla CA) and Paul Gardner (Dartmouth, Hanover NH). […] Plasmid DNA encoding the human α10 nAChR was obtained from J. Michael McIntosh. Plasmid DNA encoding the human α9 nAChR and the human receptor-associated protein of the synapse (RAPSYN) with codon optimization for expression in Xenopus laevis were obtained from Katrin Richter. […] After linearization and purification of the plasmid DNAs, RNAs were prepared using the mMessage mMachine in vitro RNA transcription kit (Ambion, Austin, TX). […] Oocytes were maintained in Barth's solution containing 0.32 mM Ca(NO3)2 and 0.41 mM CaCl2, and recordings were conducted 2-20 days after injection.
(§6) Electrophysiology: Two-electrode voltage-clamp experiments were conducted using OpusXpress 6000A (Molecular Devices, Union City CA, USA). Both the voltage and current electrodes were filled with 3 M KCl. Oocytes were voltage-clamped at −60 mV at rt.
(§7) The responses were calculated as both peak-current amplitudes and net charge. Data were collected at 50 Hz, filtered at 20 Hz, and analyzed by Clampfit (Molecular Devices) and Excel (Microsoft, Redmond, WA, United States). Data are expressed as means±SEM from at least five oocytes for each experiment and plotted with Kaleidagraph 4.5.2 (Abelbeck Software, Reading, PA, United States). Each episode of data acquisition was a total of 210 s and included an initial 30 s period used to define the baseline for the drug-evoked responses. After 30 s, drugs were applied, and the following 120 s were defined as the drug response period for analysis. […] The values for the curve fits were generated using the Levenberg-Marquardt algorithm to obtain the best Chi-Square fit to the Hill equation using the Kaleidagraph 4.5.2 plotting program. The errors in the tables are the calculated standard errors of the fit parameters based on the goodness of fit.

Test [5] has as its target T2, α9 nAChR. Particulars: earlier reports / Papke et al. (2022), Richter et al. (2022); cited from earlier work.
In test [6] the target is T4, α1β1εδ nAChR (Mus musculus, UniProt P02716+P04756+P09690+P20782).
T4 construct: expressed in transfected cells; host or cells: Xenopus laevis oocytes
Description: Inhibition of control ACh responses by co-application, muscle α1β1εδ nAChR in oocytes. Format: cell-based. Conditions: 3 μM compound co-applied with ACh; fraction of control ACh response. Here is the method:
(§8) Initial profiling against heteromeric receptors: The test compounds for their ability to activate or inhibit other nAChR subtypes were evaluated. Agonist activity was evaluated by applying the compounds at 100 or 30 μM to human α4β2 and α3β4 as well as to mouse muscle α1β1εδ nAChR expressed in Xenopus oocytes. […] The inhibitory activity was generally low (Table 3).
as §2, §3, §7

In test [7] the target is T5, α3β4 nAChR (Homo sapiens, UniProt P30926+P32297).
T5 construct: expressed in transfected cells; host or cells: Xenopus laevis oocytes
T5 sequence (P32297 32-505): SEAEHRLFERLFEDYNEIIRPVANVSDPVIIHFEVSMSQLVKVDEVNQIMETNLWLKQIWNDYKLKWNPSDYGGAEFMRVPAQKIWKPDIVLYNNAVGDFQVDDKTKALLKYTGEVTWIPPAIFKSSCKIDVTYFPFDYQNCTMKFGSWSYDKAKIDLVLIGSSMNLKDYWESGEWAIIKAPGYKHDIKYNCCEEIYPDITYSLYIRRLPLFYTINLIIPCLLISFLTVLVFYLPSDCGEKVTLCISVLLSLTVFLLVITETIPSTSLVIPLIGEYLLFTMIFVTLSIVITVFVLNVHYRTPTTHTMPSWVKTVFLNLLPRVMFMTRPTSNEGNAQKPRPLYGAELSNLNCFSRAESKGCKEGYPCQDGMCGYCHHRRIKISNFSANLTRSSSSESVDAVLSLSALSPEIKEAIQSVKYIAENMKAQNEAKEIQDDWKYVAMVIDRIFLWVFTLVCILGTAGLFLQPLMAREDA
T5 sequence (P30926 22-498): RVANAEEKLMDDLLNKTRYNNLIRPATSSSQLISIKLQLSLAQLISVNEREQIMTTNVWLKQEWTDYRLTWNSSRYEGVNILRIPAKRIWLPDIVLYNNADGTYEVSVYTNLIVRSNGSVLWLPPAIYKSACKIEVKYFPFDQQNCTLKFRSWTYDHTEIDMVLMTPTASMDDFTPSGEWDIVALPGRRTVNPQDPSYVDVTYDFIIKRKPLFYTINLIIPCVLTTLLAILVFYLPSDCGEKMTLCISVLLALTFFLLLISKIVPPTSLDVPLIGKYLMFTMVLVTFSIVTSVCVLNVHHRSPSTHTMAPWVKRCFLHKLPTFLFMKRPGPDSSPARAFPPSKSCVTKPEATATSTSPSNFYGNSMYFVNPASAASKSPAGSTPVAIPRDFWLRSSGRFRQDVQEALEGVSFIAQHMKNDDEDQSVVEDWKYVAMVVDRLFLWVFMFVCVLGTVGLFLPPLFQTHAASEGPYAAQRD
Description: Inhibition of control ACh responses by co-application, α3β4 nAChR in oocytes. Format: cell-based. Particulars: 3 μM compound co-applied with ACh; fraction of control ACh response. The protocol: as §8, §2, §3, §7

Test [8] has as its target T6, α4β2 nAChR (Homo sapiens, UniProt P17787+P43681).
T6 construct: expressed in transfected cells; host or cells: Xenopus laevis oocytes
In words: Inhibition of control ACh responses by co-application, α4β2 nAChR in oocytes. Particulars: 3 μM compound co-applied with ACh; fraction of control ACh response. In kind it is cell-based. The protocol:
as §8, §2, §3, §7

Test [9] deals with T3, α9α10 nAChR. Description: Two-electrode voltage-clamp, agonist concentration-response, α9α10 nAChR in Xenopus oocytes. Format: cell-based. Conditions: for EC50 / α9α10 Imax: peak currents, ± standard error of fit; for α9α10 Imax: relative to ACh (Imax = 1).
From the text: as §1, §2, §3, §4

Test [10] addresses T1, α7 nAChR. Description: α7 responses to drugs co-applied with the PAM PNU-120596 (silent agonism). Conditions: for Response co-applied with PNU-120596 relative to the ACh controls: 30 μM compound + 10 μM PNU-120596, relative to ACh alone controls; for Response co-applied with PNU-120596, normalized to ACh co-applied with PNU-120596: drug 30 μM + 10 μM PNU-120596, normalized to 30 μM ACh + 10 μM PNU-120596. In kind it is cell-based.
From the text: as §5, §6, §7

[11] abbreviates: 3e vs larger ammonium analogs, 3h relative to 3g.

T3 sequence (Q9UGM1 26-479 limits assumed): as the sequence (Q9UGM1 26-479 limits assumed) above
T3 sequence (Q9GZZ6 25-450): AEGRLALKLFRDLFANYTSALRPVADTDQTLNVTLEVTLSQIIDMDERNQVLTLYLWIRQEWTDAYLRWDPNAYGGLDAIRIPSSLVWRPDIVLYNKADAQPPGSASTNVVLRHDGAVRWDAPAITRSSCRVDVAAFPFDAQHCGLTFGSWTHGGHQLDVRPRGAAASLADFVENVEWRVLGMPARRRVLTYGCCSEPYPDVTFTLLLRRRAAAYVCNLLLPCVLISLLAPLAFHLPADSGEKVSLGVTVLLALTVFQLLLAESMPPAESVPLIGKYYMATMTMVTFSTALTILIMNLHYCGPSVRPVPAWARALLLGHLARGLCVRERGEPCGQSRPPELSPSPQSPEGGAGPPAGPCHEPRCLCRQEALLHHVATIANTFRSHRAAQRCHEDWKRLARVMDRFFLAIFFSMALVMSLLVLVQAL
T1 sequence (P36544 23-502): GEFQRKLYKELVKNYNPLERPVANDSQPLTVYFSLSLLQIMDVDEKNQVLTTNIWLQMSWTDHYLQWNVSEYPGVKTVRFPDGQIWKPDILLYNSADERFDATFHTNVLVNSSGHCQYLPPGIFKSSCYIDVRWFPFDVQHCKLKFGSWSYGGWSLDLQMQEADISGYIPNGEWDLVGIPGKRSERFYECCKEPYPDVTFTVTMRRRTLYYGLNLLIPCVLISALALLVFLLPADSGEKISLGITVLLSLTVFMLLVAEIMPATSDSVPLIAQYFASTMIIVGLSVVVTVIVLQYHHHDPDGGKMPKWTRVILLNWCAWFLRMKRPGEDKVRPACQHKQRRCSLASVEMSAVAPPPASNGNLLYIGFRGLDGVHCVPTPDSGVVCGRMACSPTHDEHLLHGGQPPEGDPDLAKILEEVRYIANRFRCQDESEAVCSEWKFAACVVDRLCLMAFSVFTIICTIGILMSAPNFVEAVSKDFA
T6 sequence (P43681 29-627 limits assumed): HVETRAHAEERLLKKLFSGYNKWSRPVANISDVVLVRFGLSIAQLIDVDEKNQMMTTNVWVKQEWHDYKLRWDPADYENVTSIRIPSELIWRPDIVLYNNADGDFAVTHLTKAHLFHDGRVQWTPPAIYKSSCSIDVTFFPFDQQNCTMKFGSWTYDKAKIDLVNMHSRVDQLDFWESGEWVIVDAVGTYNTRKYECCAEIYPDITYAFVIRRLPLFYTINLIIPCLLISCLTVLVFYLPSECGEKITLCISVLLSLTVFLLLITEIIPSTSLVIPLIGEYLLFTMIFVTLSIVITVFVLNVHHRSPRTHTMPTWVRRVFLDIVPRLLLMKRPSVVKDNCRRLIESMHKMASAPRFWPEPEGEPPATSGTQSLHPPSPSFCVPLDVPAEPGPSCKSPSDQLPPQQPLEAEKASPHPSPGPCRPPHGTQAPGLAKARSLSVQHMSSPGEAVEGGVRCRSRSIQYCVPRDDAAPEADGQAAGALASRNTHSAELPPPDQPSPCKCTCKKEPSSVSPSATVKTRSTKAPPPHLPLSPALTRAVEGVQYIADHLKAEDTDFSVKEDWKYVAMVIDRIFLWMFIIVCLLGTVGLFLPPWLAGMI
T6 sequence (P17787 26-502): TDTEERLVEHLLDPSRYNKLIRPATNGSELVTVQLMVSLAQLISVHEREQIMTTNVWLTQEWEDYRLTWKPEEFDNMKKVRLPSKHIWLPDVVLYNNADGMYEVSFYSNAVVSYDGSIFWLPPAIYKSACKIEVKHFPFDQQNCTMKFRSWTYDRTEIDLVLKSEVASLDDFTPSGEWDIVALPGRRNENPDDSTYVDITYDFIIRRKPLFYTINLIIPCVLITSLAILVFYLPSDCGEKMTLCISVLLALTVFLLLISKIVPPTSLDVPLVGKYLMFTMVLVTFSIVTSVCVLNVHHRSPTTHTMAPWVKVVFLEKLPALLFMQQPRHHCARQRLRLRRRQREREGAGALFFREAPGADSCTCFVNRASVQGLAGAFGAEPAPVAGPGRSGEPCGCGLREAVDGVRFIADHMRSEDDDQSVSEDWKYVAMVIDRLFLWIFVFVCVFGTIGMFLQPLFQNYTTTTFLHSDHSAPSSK

For `CC[N+]1(CC)CCN(c2ccc(C(=O)Nc3cccc(C)n3)cc2)CC1.[I-]` [Compound 2, 1,1-diethyl-4-(4-((6-methylpyridin-2-yl)carbamoyl)phenyl)piperazin-1-ium iodide], the EC50 in test [1] (data taken from Papke et al. (2022)) is 4.3 to 6.4 µM. Moreover, the “Agonist character at α7” value in [1] is listed as “partial agonists”. Also, the “α7 Imax” value in [1] (relative to ACh (Imax = 1), data taken from Papke et al. (2022)) is 0.40-0.57. In addition, the “Agonist character / efficacy at α9” value in test [2] was “full agonist”. Moreover, the “α9α10 Imax” value in test [3] was 0.90 ± 0.02. Moreover, the “Agonist character / efficacy at α7” value in test [4] is reported as “partial agonist”. Moreover, the “Agonist character at α9” value in test [5] is reported as “full α9 agonist”.
Regarding `CC[N+]1(CC)CCN(c2ccc(-n3cccn3)cc2)CC1.[I-]` [Compound 3h, 4-(4-(1H-pyrazol-1-yl)phenyl)-1,1-diethylpiperazin-1-ium iodide], in test [6], the “Effect of co-application on the control ACh responses, α1β1εδ” value amounted to 0.590 ± 0.062. Also, in [2], the “Agonist character / efficacy at α9” value is on record as “full agonist”, the EC50 was determined as 1.49 ± 0.24 µM and the “α9 Imax” value amounted to 1.01 ± 0.04. The “Fold loss of potency at α9 relative to comparator compound” value in [2] (setting [11]) is 3 fold. In test [4], the “Agonist character / efficacy at α7” value is “very weak partial agonists”; the response was half-maximal at 18 ± 0.6 µM (EC50); the “α7 Imax” value is 0.088 ± 0.001 and 0.088. In test [4] (3h compared with 3g), the “Fold loss of potency at α7 relative to comparator compound” value worked out at 10 fold. For the same compound, the “Effect of co-application on the control ACh responses, α3β4” value in test [7] was found to be 0.736 ± 0.034. The “Effect of co-application on the control ACh responses, α4β2” value in test [8] is 0.913 ± 0.026. In addition, in test [9], the “Agonist character / efficacy at α9α10” value is listed as “partial agonist”, the EC50 was 2 ± 0.8 µM and the “α9α10 Imax” value is given as 0.59 ± 0.05. Besides, the “Fold loss of potency at α9α10 relative to comparator compound” value in test [9] (setting [11]) worked out at 3 fold. In addition, in test [10], the “Response co-applied with PNU-120596 relative to the ACh controls” value was “approximately 4 times” and the “Response co-applied with PNU-120596, normalized to ACh co-applied with PNU-120596” value was 0.17.
On to `CC[N+]1(CC)CCN(c2ccc(-n3cccc3)cc2)CC1.[I-]` [Compound 3i, 4-(4-(1H-pyrrol-1-yl)phenyl)-1,1-diethylpiperazin-1-ium iodide], for which, in [6], the “Effect of co-application on the control ACh responses, α1β1εδ” value was found to be 0.691 ± 0.094. For the same compound, in test [2], the “Agonist character / efficacy at α9” value was “reduced efficacy; also recorded: weakened partial agonist”, the response was half-maximal at 1.12 ± 0.25 µM (EC50) and the “α9 Imax” value is given as 0.27 ± 0.01. In test [4], the “Agonist character / efficacy at α7” value is “reduced efficacy”; the EC50 is 27 ± 4 µM; the “α7 Imax” value was 0.041 ± 0.002 and 0.041. Also, the “Effect of co-application on the control ACh responses, α3β4” value in test [7] is on record as 0.387 ± 0.057. For the same compound, in [8], the “Effect of co-application on the control ACh responses, α4β2” value is 0.709 ± 0.086. Further, in [9], the “Agonist character / efficacy at α9α10” value is “weakened partial agonist”, the EC50 turned out to be 1.5 ± 0.6 µM and the “α9α10 Imax” value is reported as 0.17 ± 0.01. Further, in test [10], the “Response co-applied with PNU-120596 relative to the ACh controls” value is recorded as about 2 times and the “Response co-applied with PNU-120596, normalized to ACh co-applied with PNU-120596” value is 0.08.
For `CC[N+]1(CC)CCCCC1` [diE-piperidinium, reference compound], in test [1], the “Agonist character at α7” value was “silent agonist”.
`C[N+]1(C)CCCCC1` [diM-piperidinium, reference compound]: in test [1], the “Agonist character at α7” value was “essentially a full agonist”.
In the case of `CC[N+]1(CC)CCN(c2ccc(C(F)(F)F)cc2)CC1` [pCF3-diEPP, reference compound], in test [5], the “Agonist character at α9” value is recorded as “partial agonist”.

The record behind these values is patent US12291501B2 (University of Florida Research Foundation, Inc., priority 2021, dated 2025).
